Experimental findings from patent US8492384B2 (Korea Institute of Science and Technology, priority 2008, dated 2013) are described below.

T1 sequence (O43497 whole entry): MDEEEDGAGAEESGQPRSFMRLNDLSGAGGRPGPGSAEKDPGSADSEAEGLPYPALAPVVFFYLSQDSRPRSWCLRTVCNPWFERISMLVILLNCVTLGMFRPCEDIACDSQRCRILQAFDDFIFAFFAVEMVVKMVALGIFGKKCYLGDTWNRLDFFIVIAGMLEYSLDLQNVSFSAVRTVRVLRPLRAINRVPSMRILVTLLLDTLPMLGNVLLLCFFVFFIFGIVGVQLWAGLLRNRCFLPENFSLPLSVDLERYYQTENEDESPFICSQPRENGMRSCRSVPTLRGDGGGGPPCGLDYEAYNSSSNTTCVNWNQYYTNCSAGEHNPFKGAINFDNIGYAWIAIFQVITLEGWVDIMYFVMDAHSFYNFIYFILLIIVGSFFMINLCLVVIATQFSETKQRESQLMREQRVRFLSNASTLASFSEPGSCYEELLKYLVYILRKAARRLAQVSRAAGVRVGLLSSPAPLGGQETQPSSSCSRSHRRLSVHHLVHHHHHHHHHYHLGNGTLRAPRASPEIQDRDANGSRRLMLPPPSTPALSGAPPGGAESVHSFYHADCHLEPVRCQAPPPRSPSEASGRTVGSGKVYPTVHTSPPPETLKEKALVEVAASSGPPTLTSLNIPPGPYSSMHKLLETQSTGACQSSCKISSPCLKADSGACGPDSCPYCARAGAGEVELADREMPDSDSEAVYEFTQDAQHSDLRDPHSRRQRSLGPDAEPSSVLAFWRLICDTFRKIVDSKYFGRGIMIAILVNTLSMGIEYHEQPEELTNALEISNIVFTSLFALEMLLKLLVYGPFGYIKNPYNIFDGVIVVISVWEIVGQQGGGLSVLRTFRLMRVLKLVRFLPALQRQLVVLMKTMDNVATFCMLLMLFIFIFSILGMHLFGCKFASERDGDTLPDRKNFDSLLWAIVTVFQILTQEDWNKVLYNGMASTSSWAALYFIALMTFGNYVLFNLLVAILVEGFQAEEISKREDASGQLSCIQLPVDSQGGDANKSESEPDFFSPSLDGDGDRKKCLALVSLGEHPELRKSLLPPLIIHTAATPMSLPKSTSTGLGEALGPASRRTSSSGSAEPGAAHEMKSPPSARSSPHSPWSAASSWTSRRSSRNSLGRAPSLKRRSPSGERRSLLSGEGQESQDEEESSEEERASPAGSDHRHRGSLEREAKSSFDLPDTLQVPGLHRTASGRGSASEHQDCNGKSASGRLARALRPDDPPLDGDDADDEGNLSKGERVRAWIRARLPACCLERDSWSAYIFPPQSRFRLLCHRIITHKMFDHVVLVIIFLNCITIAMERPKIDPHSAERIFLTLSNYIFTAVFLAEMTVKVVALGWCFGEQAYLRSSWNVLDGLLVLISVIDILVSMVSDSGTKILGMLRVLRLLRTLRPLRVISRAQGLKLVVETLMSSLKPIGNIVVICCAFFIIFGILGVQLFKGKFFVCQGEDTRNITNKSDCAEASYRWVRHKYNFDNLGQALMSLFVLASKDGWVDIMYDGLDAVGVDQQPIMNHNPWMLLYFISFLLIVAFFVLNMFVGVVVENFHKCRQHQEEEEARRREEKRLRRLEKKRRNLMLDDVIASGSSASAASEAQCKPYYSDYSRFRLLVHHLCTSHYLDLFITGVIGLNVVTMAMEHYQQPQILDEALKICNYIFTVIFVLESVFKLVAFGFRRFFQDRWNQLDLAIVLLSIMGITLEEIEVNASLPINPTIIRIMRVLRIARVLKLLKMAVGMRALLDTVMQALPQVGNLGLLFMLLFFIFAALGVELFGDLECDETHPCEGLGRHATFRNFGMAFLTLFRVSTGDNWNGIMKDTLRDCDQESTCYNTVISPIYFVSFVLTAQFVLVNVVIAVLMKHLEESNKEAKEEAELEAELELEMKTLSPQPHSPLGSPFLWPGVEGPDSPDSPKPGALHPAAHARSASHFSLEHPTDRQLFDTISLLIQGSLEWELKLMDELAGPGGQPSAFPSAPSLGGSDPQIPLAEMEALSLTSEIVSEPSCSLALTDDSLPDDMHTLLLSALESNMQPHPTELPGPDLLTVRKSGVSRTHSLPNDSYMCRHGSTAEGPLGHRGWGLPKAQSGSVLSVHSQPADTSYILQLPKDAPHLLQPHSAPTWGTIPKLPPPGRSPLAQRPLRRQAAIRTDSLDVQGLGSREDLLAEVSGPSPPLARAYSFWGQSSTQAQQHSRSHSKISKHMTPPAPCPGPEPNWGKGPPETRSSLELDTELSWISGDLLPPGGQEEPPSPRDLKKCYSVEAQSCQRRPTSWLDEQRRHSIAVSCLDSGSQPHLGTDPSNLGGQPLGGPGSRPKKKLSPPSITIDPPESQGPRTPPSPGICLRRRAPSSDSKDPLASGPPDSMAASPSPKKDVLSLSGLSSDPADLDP

The first experiment addresses T1, α1G T-type calcium channels (Homo sapiens, UniProt O43497).
T1 construct: host or cells: HEK293
The experiment can be described thus: T-type calcium channel activity using the FDSS6000 (HTS, Fluo-3/AM, KCl-induced intracellular calcium change). It is filed as cell-based. Particulars: percent inhibition at 10 μM; HEK293 cells stably expressing α1G T-type calcium channels and Kir2.1; KCl 75 mM activation. The procedure:
(§1) The novel compounds of the present invention presented as the formula 1 were tested for their antagonistic activities against T-type calcium channels using the methods described below. More specifically, the synthesized compounds were screened as follows: First, as a primary screening, the compounds having 40% or higher of antagonistic activities against T-type calcium channels were selected using the FDSS6000, a high throughput screening (HTS) device. Then, as a secondary screening, the IC50 (effective inhibitory concentration) values were obtained using the electrophysiological methods.
1) Methods for the Measurements of T-Type Calcium Channel Activity Using the FDSS6000
12 to 24 hours prior to the FDSS-based HTS assay, HEK293 cells stably expressing both α1G T-type calcium channels and Kir2.1 channels (α1G cell line: KCTC 10519BP, KRIBB (Korea Research Institute of Bioscience and Biotechnology) (GENE BANK) were seeded onto the 96-well plate coated with poly-L-lysine (0.05 mg/mL) at a density of 4×10^4 cells/well using a cell distributor (Titertek, USA). On the following day, the cells attached onto the 96-well plate were washed three times with a HEPES-buffered solution (150 mM NaCl, 5 mM KCl, 1 mM MgCl2, 2 mM CaCl2, 10 mM HEPES, 10 mM glucose, and pH 7.4) using an automatic 96-well plate washer (BioTek, USA), and then labeled with a fluorescent calcium indicator dye, Fluo-3/AM (5 μM) and 0.001% Pluronic F-127 in a HEPES-buffered solution at room temperature for 1 hour and then washed again with a HEPES-buffered solution twice. 10 minutes prior to the FDSS6000 measurements, the cells was washed with a HEPES-buffered solution containing 10 mM CaCl2 once and the final volume was adjusted.
In addition to the 96-well plates with cells, the two drug plates were prepared: one containing KCl (final concentration of 75 mM) for the activation of T-type calcium channels, and the other containing testing compounds (blocking agents of T-type calcium channels). Since most cell-based HTS devices are provided with a liquid application system for drug injection but not with a liquid absorption system, the KCl solution and the blocking agents for screening were prepared at concentrations five times higher than the final concentrations in the 10 mM CaCl2 HEPES-buffered solution, and then diluted in the cell plate, and the activities were measured. The specific method of the FDSS6000 measurements is as follows: For the FDSS6000 measurements, after the 20-sec baseline recordings, cells were preincubated with drugs for 75 seconds and the change in intracellular calcium concentration induced by KCl was measured. The percent inhibition by a test compound was calculated as integrated values of 340/380 fluorescent ratio of untreated and drug-treated cells. The control drug was 10 μM of Mibefradil®.
In details, cells were selectively exposed to 340 nm and 380 nm light excited by 4 xenon lamps installed in FDSS6000 using a computer-controlled filter wheel. The emitter fluorescence light through a 515 nm long-pass filter was passed by a freezing digital CCD camera mounted on the device. Data were collected every 1.23 seconds, and an average value of 340/380 fluorescent ratio for each well was obtained using a digital fluorescent analyzer. Data acquisition and analysis were performed using a program provided by Hamamatsu Photonics.
“1-N-{2-[4-(4-chlorophenyl) (phenyl)methylpiperazin-1-yl]ethyl}carbamoylethyl-2-methylimidazole [Compound No. 93]”: the “FDSS (%, 10 μM)” value is 43.04%.

Consider “1-N-{2-[4-(2,3-dimethylphenyl)(phenyl)methylpiperazin-1-yl]ethyl}carbamoylethyl-4-phenylimidazole [Compound No. 56]”, for which the “FDSS (%, 10 μM)” value worked out at 35.38%.

As for “1-N-{2-[4-(4-chlorophenyl) (phenyl)methylpiperazin-1-yl]ethyl}carbamoylethyl-4-methylimidazole [Compound No. 94]”, the “FDSS (%, 10 μM)” value is 55.99%.

The experiment is the same for the next values; noted with them: percent inhibition at 10 μM; HEK293 cells stably expressing α1G T-type calcium channels and Kir2.1; KCl 75 mM activation; read-out: FDSS (%, 10 μM).
For the molecule `Cc1cccc(N2CCN(C(=O)CCn3ccnc3-c3ccccc3)CC2)c1C` [Compound No. 15, 1-N-[4-(2,3-dimethylphenyl)piperazin-1-yl]carbonylethyl-2-phenylimidazole], the inhibition at 10 µM was determined as 34.4%.

As to `O=C(CCn1cnc(-c2ccccc2)c1)NCCN1CCN(c2cccc(Cl)c2)CC1` [Compound No. 79, 1-N-{2-[4-(3-chlorophenyl)piperazin-1-yl]ethyl}carbamoylethyl-4-phenylimidazole], the inhibition at 10 µM amounted to 36.9%.

`Cc1ccc(N2CCN(C(=O)CCn3ccnc3-c3ccccc3)CC2)c(C)c1` [Compound No. 16, 1-N-[4-(2,4-dimethylphenyl)piperazin-1-yl]carbonylethyl-2-phenylimidazole]: the inhibition at 10 µM was 34.3%.

Consider `O=C(CCn1cnc(-c2ccccc2)c1)N1CCN(Cc2ccccc2)CC1` [Compound No. 2, 1-N-(4-benzylpiperazin-1-yl)carbonylethyl-4-phenylimidazole], for which the inhibition at 10 µM is 33.5%.

For the molecule `O=C(CCn1cnc(-c2ccccc2)c1)N1CCN(c2ccccc2)CC1` [Compound No. 53, 1-N-(4-phenylpiperazin-1-yl)carbonylethyl-4-phenylimidazole], the inhibition at 10 µM worked out at 42.2%.

As for `Cc1cccc(CN2CCN(CCNC(=O)CCn3ccnc3-c3ccccc3)CC2)c1` [Compound No. 68, 1-N-{2-[4-(3-methylbenzyl)piperazin-1-yl]ethyl}carbamoylethyl-2-phenylimidazole], the inhibition at 10 µM was 31.1%.

On to `O=C(CCn1cnc(-c2ccccc2)c1)NCCN1CCN(c2ccccc2)CC1` [Compound No. 71, 1-N-[2-(4-phenylpiperazin-1-yl)ethyl]carbamoylethyl-4-phenylimidazole], for which the inhibition at 10 µM was 30.7%.

`Cc1nccn1CCC(=O)N1CCN(C(c2ccccc2)c2ccccc2)CC1` [Compound No. 35, 1-N-(4-diphenylmethylpiperazin-1-yl)carbonylethyl-2-methylimidazole]: the inhibition at 10 µM came to 35%.

For `O=C(CCn1cnc(-c2ccccc2)c1)NCCN1CCN(Cc2ccc(F)cc2)CC1` [Compound No. 70, 1-N-{2-[4-(4-fluorobenzyl)piperazin-1-yl]ethyl}carbamoylethyl-4-phenylimidazole], the inhibition at 10 µM is 36.7%.

For the molecule `CCN1CCN(C(=O)CCn2ccnc2-c2ccccc2)CC1` [Compound No. 23, 1-N-(4-ethylpiperazin-1-yl)carbonylethyl-2-phenylimidazole], the inhibition at 10 µM was found to be 23.4%.

As for `Cc1ccc(N2CCN(CCNC(=O)CCn3cnc(-c4ccccc4)c3)CC2)c(C)c1` [Compound No. 61, 1-N-{2-[4-(2,4-dimethylphenyl)piperazin-1-yl]ethyl}carbamoylethyl-4-phenylimidazole], the inhibition at 10 µM was found to be 44.9%.

Consider `Cc1ccc(N2CCN(CCNC(=O)CCn3ccnc3-c3ccccc3)CC2)c(C)c1` [Compound No. 62, 1-N-{2-[4-(2,4-dimethylphenyl)piperazin-1-yl]ethyl}carbamoylethyl-2-phenylimidazole], for which the inhibition at 10 µM came out at 40.5%.

Regarding `Cc1nccn1CCC(=O)NCCN1CCN(C(c2ccccc2)c2ccccc2)CC1` [Compound No. 96, 1-N-[2-(4-diphenylmethylpiperazin-1-yl)ethyl]carbamoylethyl-2-methylimidazole], the inhibition at 10 µM turned out to be 41.4%.

As to `O=C(CCn1ccnc1-c1ccccc1)N1CCN(Cc2ccc(F)cc2)CC1` [Compound No. 21, 1-N-[4-(4-fluorobenzyl)piperazin-1-yl]carbonylethyl-2-phenylimidazole], the inhibition at 10 µM amounted to 36.8%.

In the case of `Cc1ccc(N2CCN(C(=O)CCn3cnc(C)c3)CC2)c(C)c1` [Compound No. 38, 1-N-[4-(2,4-dimethylphenyl)piperazin-1-yl]carbonylethyl-4-methylimidazole], the inhibition at 10 µM was 33.8%.

Turning to `O=C(CCn1ccnc1-c1ccccc1)N1CCN(c2cccc(Cl)c2)CC1` [Compound No. 26, 1-N-[4-(3-chlorophenyl)piperazin-1-yl]carbonylethyl-2-phenylimidazole], the inhibition at 10 µM was 35.1%.

In the case of `O=C(CCn1ccnc1-c1ccccc1)N1CCN(c2ccccc2)CC1` [Compound No. 54, 1-N-(4-phenylpiperazin-1-yl)carbonylethyl-2-phenylimidazole], the inhibition at 10 µM came out at 24.2%.

With `O=C(CCn1cnc(-c2ccccc2)c1)NCCN1CCN(c2ccc(F)cc2)CC1` [Compound No. 73, 1-N-{2-[4-(4-fluorophenyl)piperazin-1-yl]ethyl}carbamoylethyl-4-phenylimidazole], the inhibition at 10 µM was 41.7%.

`Cc1cccc(CN2CCN(CCNC(=O)CCn3cnc(-c4ccccc4)c3)CC2)c1` [Compound No. 67, 1-N-{2-[4-(3-methylbenzyl)piperazin-1-yl]ethyl}carbamoylethyl-4-phenylimidazole]: the inhibition at 10 µM amounted to 39.2%.

For `COc1ccc(N2CCN(CCNC(=O)CCn3cnc(-c4ccccc4)c3)CC2)cc1` [Compound No. 75, 1-N-{2-[4-(4-methoxyphenyl)piperazin-1-yl]ethyl}carbamoylethyl-4-phenylimidazole], the inhibition at 10 µM worked out at 33%.

Consider `COc1ccc(CN2CCN(CCNC(=O)CCn3ccnc3C)CC2)cc1` [Compound No. 98, 1-N-{2-[4-(4-methoxybenzyl)piperazin-1-yl]ethyl}carbamoylethyl-2-methylimidazole], for which the inhibition at 10 µM worked out at 33.8%.

Consider `COc1ccc(N2CCN(C(=O)CCn3cnc(-c4ccccc4)c3)CC2)cc1` [Compound No. 27, 1-N-[4-(4-methoxyphenyl)piperazin-1-yl]carbonylethyl-4-phenylimidazole], for which the inhibition at 10 µM came to 37.8%.

The target of another experiment is T1, α1G T-type calcium channels. The experiment can be described thus: T-type calcium channel activity using electrophysiological whole-cell patch-clamp technique. Format: cell-based. To be noted: HEK293 cells expressing α1G T-type calcium channels. On the procedure: as §1
2) Methods for the Measurements of T-Type Calcium Channel Activity Using an Electrophysiological Whole-Cell Patch-Clamp Technique
HEK293 cells stably expressing T-type calcium channels were cultured in DMEM (Dulbecco's modified Eagle's medium) containing 10% (v/v) fetal bovine serum and 1% penicillin/streptomycin (v/v) in humidified 5% CO2 at 36.5° C. Cells expressing α1GT-type calcium channels were selected using G-418 (0.5 mg/mL) in the culture medium. The culture medium was replaced with a fresh one every 3-4 days, and cells were subcultured every week.
Cells were seeded onto the coverglass coated with poly-L-lysine (0.5 mg/mL) for the measurements of T-type calcium channel activity 2-7 days prior to the recordings. Whole-cell recordings of T-type calcium channel currents were performed using an EPC-9 patch clamp amplifier (HEKA, Germany). Whole-cell currents were recorded using micropipettes with resistance of 3-4 MΩ with the pipette (intracellular) solution containing (in mM): 130 KCl, 11 EGTA, 5 Mg-ATP, and 10 HEPES, pH to 7.4 and with the bath (extracellular) solution containing (in mM): 140 NaCl, 2 CaCl2, and 10 HEPES, pH to 7.4. The inward currents of T-type calcium channels were evoked by the test pulses of −30 mV for 50 ms at a holding potential of −100 mV every 10 seconds.
Each compound was dissolved in dimethylsulfoxide (DMSO) as 10 mM stock solutions and diluted in the bath solution to 10 μM (containing 0.1% DMSO). […] More specifically, each compound was perfused to the bath for about 30-60 seconds, and the inhibition of the inward peak currents by a test compound was calculated as a percent inhibition from which the IC50 values were determined.
Take “1-N-{2-[4-(4-chlorophenyl) (phenyl)methylpiperazin-1-yl]ethyl}carbamoylethyl-2-methylimidazole [Compound No. 93]”: the 50% inhibitory concentration (IC50) worked out at 9.55 ± 8.7 µM.

As to `O=C(CCn1cnc(-c2ccccc2)c1)N1CCN(c2ccccc2)CC1` [Compound No. 53, 1-N-(4-phenylpiperazin-1-yl)carbonylethyl-4-phenylimidazole], the IC50 was 0.00046 µM.

As to `Cc1nccn1CCC(=O)NCCN1CCN(C(c2ccccc2)c2ccccc2)CC1` [Compound No. 96, 1-N-[2-(4-diphenylmethylpiperazin-1-yl)ethyl]carbamoylethyl-2-methylimidazole], the IC50 is 0.39 ± 0.28 µM.

In the case of “1-N-{2-[4-(4-chlorophenyl) (phenyl)methylpiperazin-1-yl]ethyl}carbamoylethyl-4-methylimidazole [Compound No. 94]”, the IC50 is 6.77 ± 1.45 µM.
